Test results: PubChem BioAssay (NCI)
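96-well plates; 48 h exposure; 5 concentrations. Endpoints by linear interpolation between flanking doses. Not reached: highest tested concentration assigned. GI50 = concentration required for 50% inhibition of growth. At the TGI there is no net growth.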

How the values were obtained:
Assay in all cases: inhibition of tumour cell growth, NCI panel, 48 h
[1] = system: SN12C renal
[2] = system: TK-10 renal
[3] = system: RPMI-8226 leukemia
[4] = system: SK-MEL-2 melanoma
[5] = system: HCT-15 colon
[6] = system: CAKI-1 renal
[7] = system: NCI-H226 lung
[8] = system: LOX IMVI melanoma
[9] = system: DU-145 prostate
[10] = system: MDA-MB-231 breast

Compound | TGI [1] | TGI [2] | TGI [3] | TGI [4] | TGI [5] | TGI [6] | TGI [7] | TGI [8] | GI50 [1] | GI50 [2] | GI50 [9] | TGI [9] | GI50 [3] | GI50 [8] | GI50 [4] | GI50 [5] | GI50 [7] | GI50 [10] | TGI [10] | GI50 [6]
OC(CC1SCCCS1)c1ccccc1 (stereo not drawn) | > 100 µM | > 100 µM | > 100 µM | > 100 µM | > 100 µM | > 100 µM | > 100 µM |  |  |  |  |  |  |  |  |  |  |  |  | 
CC(C)N(C(=O)C12C3C4C1C1C4(C#N)C3C12C#N)C(C)C (stereo not drawn) | > 100 µM | > 100 µM | > 100 µM |  | > 100 µM | > 100 µM | > 100 µM |  |  |  |  |  |  |  |  |  |  |  |  | 
COc1ccc2occ(CCC(=O)O)c2c1 | > 100 µM | > 100 µM | > 100 µM |  | > 100 µM | > 100 µM |  | > 100 µM |  |  |  |  |  |  |  |  |  |  |  | 
Cc1cn2c(=O)c3ncn(C4OC(CO)C(O)C4O)c3n(C)c2n1 (stereo not drawn) | > 100 µM | > 100 µM | > 100 µM | > 100 µM | > 100 µM | > 100 µM | > 100 µM | > 100 µM |  |  |  |  |  |  |  |  |  |  |  | 
O=C1CCC2(c3ccc(Cl)cc3)Nc3ncccc3N12 (stereo not drawn) | > 100 µM | > 100 µM | > 100 µM | > 100 µM | > 100 µM | > 100 µM | > 100 µM | > 100 µM |  |  |  |  |  |  |  |  |  |  |  | 
CCCCCCCCCCCCCC(=O)OCC(C[As](=O)(O)O)OC(=O)CCCCCCCCCCCCC (stereo not drawn) | > 100 µM | > 100 µM | > 100 µM | > 100 µM | > 100 µM | > 100 µM | > 100 µM |  |  |  |  |  |  |  |  |  |  |  |  | 
CC(C)(C)NNC(=O)CCn1[nH]c(=O)c(Cl)c(Cl)c1=O | > 100 µM | > 100 µM | > 100 µM | > 100 µM | > 100 µM | > 100 µM | > 100 µM | > 100 µM |  |  |  |  |  |  |  |  |  |  |  | 
CC(C)CCC1CC2C(=O)N(c3ccccc3)C(=O)C2c2[nH]c3ccccc3c21 (stereo not drawn) | 15.4 µM | 16.1 µM | 11.8 µM |  | 13.4 µM |  | 12.4 µM | 14.6 µM |  |  |  |  |  |  |  |  |  |  |  | 
O=C(O)COc1ccc2c(=O)c3sc4c(=O)c5ccccc5c(=O)c4c3c(=O)c2c1 | 29.8 µM | 46.5 µM | 77.6 µM | 49.3 µM | 18.2 µM |  | 41.1 µM | 61.1 µM | 12.3 µM | 23 µM | 2.15 µM | 5.34 µM | 27.6 µM | 9.18 µM | 19.8 µM | 4.41 µM | 15 µM | 17.8 µM | 71.7 µM | 
C#CCOc1cccc(-c2ncc3cc(NC(=O)CCl)ccc3n2)c1 | 2.93 µM | 4.85 µM |  | 3.63 µM |  | 3.31 µM | 8.17 µM |  | 1.44 µM | 2.6 µM | 1.79 µM | 3.19 µM |  |  | 1.58 µM |  | 2.6 µM |  |  | 1.88 µM
CC(C)C(CCl)NC(=O)c1cccc(C(=O)N[C@H](CCl)C(C)C)n1 (stereo in doubt) | > 100 µM | > 100 µM | > 100 µM |  | > 100 µM | > 100 µM | > 100 µM | > 100 µM |  |  |  |  |  |  |  |  |  |  |  | 
CC12C/C(=C\c3ccccc3)C(=O)C3C1CCCC32 | > 100 µM | > 100 µM | > 100 µM | > 100 µM | > 100 µM | > 100 µM | > 100 µM | > 100 µM |  |  |  |  |  |  |  |  |  |  |  | 
Cc1cc(Nc2ccc(NC(=O)c3ccc(Nc4ccnc5ccccc45)cc3)cc2)nc(N)n1 | 5.02 µM | > 100 µM | > 100 µM | 94.7 µM | > 100 µM | > 100 µM | 5 µM |  | 2.13 µM | 19.8 µM | 2.03 µM | 5.16 µM | > 100 µM |  | 5.56 µM | 6.16 µM | 2.42 µM |  |  | > 100 µM
NC(=S)N/N=C/C(=O)O | > 100 µM |  | > 100 µM | > 100 µM | > 100 µM | > 100 µM | > 100 µM | > 100 µM | > 100 µM |  | > 100 µM | > 100 µM | > 100 µM | > 100 µM | > 100 µM | > 100 µM | > 100 µM | 81.6 µM | > 100 µM | > 100 µM
Cc1cc(C)c2c(n1)sc1c(Nc3ccc(Cl)cc3)ncnc12 | > 100 µM | > 100 µM | > 100 µM | > 100 µM | > 100 µM | > 27.6 µM | 5.67 µM | > 100 µM | 0.0312 µM | > 100 µM | < 0.01 µM | > 100 µM | 0.0197 µM | < 0.01 µM | > 100 µM | < 0.01 µM | 0.0333 µM |  |  | < 0.01 µM
Nc1nc(Cl)cc(NCCCCCCCCNc2cc(Cl)nc(N)n2)n1 | > 100 µM | > 100 µM | > 100 µM | > 100 µM | > 100 µM | 44.7 µM | 48.5 µM | 34.7 µM |  |  |  |  |  |  |  |  |  |  |  | 
CC(C)C1=CC23CCC4C(C)(C(=O)O)CCCC4(C)C2CC1C1C(=O)N(c2ccc(Cc4ccc(N5C(=O)C6C7CC8C9(C)CCCC(C)(C(=O)O)C9CCC8(C=C7C(C)C)C6C5=O)cc4)cc2)C(=O)C13 (stereo not drawn) | 25.3 µM | 29.7 µM | > 100 µM | 26.4 µM | 24.5 µM |  | 28.4 µM |  |  |  |  | 25.3 µM |  |  |  |  |  |  | 58.8 µM | 
CO/N=C(/C)c1cccc(Nc2cc(-n3nnc4ccccc43)nc3ccccc23)c1 | > 100 µM | > 100 µM | > 100 µM | > 100 µM | > 100 µM | > 100 µM | > 100 µM |  | 32.8 µM | 26 µM | 40.4 µM | > 100 µM | 15.1 µM |  | > 100 µM | 31.8 µM | 27.3 µM | 7.55 µM | 60.2 µM | 22.5 µM
COC(=O)C1c2cc3c(cc2C(OC2OC(C)C(OC)C(C)(OC)C2OC)CC1(C)O)C(=O)c1c(O)cc2c(c1C3=O)OC1OC2(C)C(O)C([N+](C)(C)[O-])C1O (stereo not drawn) | 1.8 µM | > 100 µM | > 100 µM | 0.641 µM | > 100 µM | > 28.3 µM |  | 3.38 µM |  |  |  | > 30.1 µM |  |  |  |  |  |  | 4.74 µM | 
CCOC(=O)c1cnc2c(ccc3[nH]n(C)nc32)c1=O | > 100 µM | > 100 µM | 67.5 µM | 46.1 µM | > 100 µM | > 100 µM | > 100 µM |  |  |  |  |  |  |  |  |  |  |  |  | 
